Laboratory results taken from patent US8633182B2, “Indanyloxyphenylcyclopropanecarboxylic acids” (Boehringer Ingelheim International GmbH, priority 2012, dated 2014).

Biological target: human GPR40 receptor (Homo sapiens, UniProt O14842)
Experiment: IP1 accumulation measurements using the IPOne assay system in 1321N1 cells stably expressing human GPR40 receptor
Format: cell-based
Settings: IP1 accumulation (HTRF), 1321N1 cells stably expressing human GPR40, 1 hour stimulation at 37° C.
Protocol: IP1 accumulation measurements using the IPOne assay system—1321N1 cells stably expressing human GPR40 receptor (Euroscreen, Belgium) are seeded 24 h before the assay in black clear-bottom collagen-coated or white 384-well plates in culture medium containing 10% FCS, 1% Na-Pyruvate and 400 μg/mL G418. IP1 is assayed according to the Manufacturer's description (Cisbio Bioassays, France). In brief, the assay is started by substitution of the culture medium by stimulation buffer (Hepes 10 mM, CaCl2 1 mM, MgCl2 0.5 mM, KCl 4.2 mM, NaCl 146 mM and glucose 5.5 mM, pH 7.4) without LiCl or with […]. Cells are stimulated for 1 hour at 37° C., 5 or 10% CO2 by addition of the compounds that are diluted in stimulation buffer containing LiCl yielding a final LiCl concentration of 50 mM. Assays are stopped by adding HTRF-conjugates (IP1-d2 and Anti-IP1 cryptate Tb) and lysis buffer, provided by the manufacturer. After an incubation time of 1 hour at room temperature plates are measured using an EnVision™, Perkin Elmer. The obtained fluorescence ratios at […] are then used to calculate the pEC50 values using GraphPad Prism 5 (Graphpad Software Inc, USA) or Assay Explorer 3.3 Software (Accelrys, Inc.) by interpolation using an IP1 reference curve and subsequent sigmoidal curve fitting allowing for a variable hill slope.

human GPR40 receptor, sequence (O14842 whole entry): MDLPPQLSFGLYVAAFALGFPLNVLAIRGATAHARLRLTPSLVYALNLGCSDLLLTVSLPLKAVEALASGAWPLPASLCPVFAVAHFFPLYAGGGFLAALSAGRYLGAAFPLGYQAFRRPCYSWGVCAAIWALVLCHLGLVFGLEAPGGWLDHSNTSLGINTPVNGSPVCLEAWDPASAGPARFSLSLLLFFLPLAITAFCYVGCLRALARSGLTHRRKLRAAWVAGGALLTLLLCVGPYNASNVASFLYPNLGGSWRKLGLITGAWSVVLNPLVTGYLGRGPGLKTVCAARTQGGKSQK

| SMILES | EC50 [µM] |
| --- | --- |
| O=C(O)[C@H]1C[C@@H]1c1ccc(O[C@@H]2CCc3c(-c4cccc5ncccc45)ccc(F)c32)cc1 [Example 48, (1S,2S)-2-(4-((1R)-7-fluoro-4-(quinolin-5-yl)-2,3-dihydro-1H-inden-1-yloxy)phenyl)cyclo-propanecarboxylic acid] | 0.006 |
| O=C(O)C1CC1c1ccc(O[C@@H]2CCc3c2cccc3C(F)(F)F)cc1F (stereo in doubt) [Example 5, 2-[4-((R)-4-Trifluoromethyl-indan-1-yloxy)-2-fluorophenyl]-trans-cyclopropanecarboxylic acid] | 0.085 |
| Cc1cc(OC[C@@H](C)CS(C)(=O)=O)cc(C)c1-c1ccc(F)c2c1CC[C@H]2Oc1ccc([C@H]2C[C@@H]2C(=O)O)cc1 [Example 29, (1S,2S)-2-(4-{(R)-7-Fluoro-4-[4-((R)-3-methanesulfonyl-2-methyl-propoxy)-2,6-dimethyl-phenyl]-indan-1-yloxy}-phenyl)-cyclopropanecarboxylic acid] | 0.007 |
| Cc1cc(OC2CCOCC2)cc(C)c1-c1c(C#N)ccc2c1CC[C@H]2Oc1ccc([C@H]2C[C@@H]2C(=O)O)cc1 [Example 38, (1S,2S)-2-(4-{(R)-5-Cyano-4-[2,6-dimethyl-4-(tetrahydro-pyran-4-yloxy)-phenyl]-indan-1-yloxy}-phenyl)-cyclopropane-carboxylic acid] | 0.04 |
| Cc1cc(OCCCS(C)(=O)=O)cc(C)c1-c1ccc(F)c2c1CC[C@H]2Oc1ccc(C2CC2C(=O)O)cc1 (stereo partly drawn) [Example 13] | 0.013 |
| Cc1cc(OCCC(C)(C)O)cc(C)c1-c1ccc(F)c2c1CC[C@H]2Oc1ccc([C@H]2C[C@@H]2C(=O)O)cc1 [Example 17, (1S,2S)-2-(4-{(R)-7-Fluoro-4-[4-(3-hydroxy-3-methyl-butoxy)-2,6-dimethyl-phenyl]-indan-1-yloxy}-phenyl)-cyclopropanecarboxylic acid] | 0.004 |
| O=C(O)[C@H]1C[C@@H]1c1ccc(O[C@@H]2CCc3cccc(F)c32)cc1 [Example 16, (1S,2S)-2-[4-((R)-7-Fluoro-indan-1-yloxy)-phenyl]-cyclopropanecarboxylic acid] | 0.304 |
| O=C(O)[C@H]1C[C@@H]1c1ccc(O[C@@H]2CCc3c(-c4ccnc5ccccc45)ccc(F)c32)cc1 [Example 50] | 0.011 |
| Cc1cc(OCC2(CO)CC2)cc(C)c1-c1ccc(F)c2c1CC[C@H]2Oc1ccc([C@H]2C[C@@H]2C(=O)O)cc1 [Example 32] | 0.004 |
| Cc1cc(O[C@@H]2CCN(S(C)(=O)=O)C2)cc(C)c1-c1ccc(F)c2c1CC[C@H]2Oc1ccc([C@H]2C[C@@H]2C(=O)O)cc1 [Example 23] | 0.013 |
| Cn1ncc2cccc(-c3ccc(F)c4c3CC[C@H]4Oc3ccc([C@H]4C[C@@H]4C(=O)O)cc3)c21 [Example 40] | 0.002 |
| Cc1cc(OC[C@H](C)CS(C)(=O)=O)cc(C)c1-c1ccc(F)c2c1CC[C@H]2Oc1ccc([C@H]2C[C@@H]2C(=O)O)cc1 [Example 28, (1S,2S)-2-(4-{(R)-7-Fluoro-4-[4-((S)-3-methanesulfonyl-2-methyl-propoxy)-2,6-dimethyl-phenyl]-indan-1-yloxy}-phenyl)-cyclopropanecarboxylic acid] | 0.006 |
| O=C(O)C1CC1c1ccc(OC2CCc3c2ccc(C(F)(F)F)c3-c2ccc(OCC3(O)CCOCC3)cc2)cc1 (stereo not drawn) [Example 63] | 0.007 |
| Cc1cc(OCC2CCS(=O)(=O)CC2)cc(C)c1-c1c(C#N)ccc2c1CC[C@H]2Oc1ccc([C@H]2C[C@@H]2C(=O)O)cc1 [Example 35] | 0.028 |
| O=C(O)[C@H]1C[C@@H]1c1ccc(O[C@@H]2CCc3c(-c4cccc5cnccc45)ccc(F)c32)cc1 [Example 49, (1S,2S)-2-(4-((1R)-7-fluoro-4-(isoquinolin-5-yl)-2,3-dihydro-1H-inden-1-yloxy)phenyl)cyclo-propanecarboxylic acid] | 0.005 |
| Cc1cc(OCC2CN(S(C)(=O)=O)C2)cc(C)c1-c1ccc(F)c2c1CC[C@H]2Oc1ccc([C@H]2C[C@@H]2C(=O)O)cc1 [Example 20, (1S,2S)-2-(4-{(R)-7-Fluoro-4-[4-(1-methanesulfonyl-azetidin-3-ylmethoxy)-2,6-dimethyl-phenyl]-indan-1-yloxy}-phenyl)-cyclopropanecarboxylic acid] | 0.01 |
| O=C(O)[C@H]1C[C@@H]1c1ccc(O[C@@H]2CCc3c2cccc3C(F)(F)F)cc1 [Example 10] | 0.013 |
| Cc1cc(OCCN2CCCS2(=O)=O)cc(C)c1-c1ccc(F)c2c1CC[C@H]2Oc1ccc([C@H]2C[C@@H]2C(=O)O)cc1 [Example 22] | 0.012 |
| Cc1cc(OC(C)(C)C(N)=O)cc(C)c1-c1ccc(F)c2c1CC[C@H]2Oc1ccc([C@H]2C[C@@H]2C(=O)O)cc1 [Example 30, (1S,2S)-2-(4-{(R)-4-[4-(1-Carbamoyl-1-methyl-ethoxy)-2,6-dimethyl-phenyl]-7-fluoro-indan-1-yloxy}-phenyl)-cyclopropanecarboxylic acid] | 0.018 |
| Cn1ncc2c(-c3ccc(F)c4c3CC[C@H]4Oc3ccc([C@H]4C[C@@H]4C(=O)O)cc3)cccc21 [Example 59] | 0.017 |
| O=C(O)C1CC1c1ccc(O[C@@H]2CCc3c2cccc3C(F)(F)F)cc1 (stereo in doubt) [Example 2, 2-[4-((R)-4-Trifluoromethyl-indan-1-yloxy)-phenyl]-trans-cyclopropanecarboxylic acid] | 0.015 |
| COc1cccnc1-c1ccc(F)c2c1CC[C@H]2Oc1ccc([C@H]2C[C@@H]2C(=O)O)cc1 [Example 51] | 0.569 |
| Cc1cc(OCCCCS(C)(=O)=O)cc(C)c1-c1ccc(F)c2c1CC[C@H]2Oc1ccc([C@H]2C[C@@H]2C(=O)O)cc1 [Example 31, (1S,2S)-2-(4-{(R)-7-Fluoro-4-[4-(4-methanesulfonyl-butoxy)-2,6-dimethyl-phenyl]-indan-1-yloxy}-phenyl)-cyclopropanecarboxylic acid] | 0.006 |
| Cc1cc(OC(C)(C)CO)cc(C)c1-c1ccc(F)c2c1CC[C@H]2Oc1ccc([C@H]2C[C@@H]2C(=O)O)cc1 [Example 26] | 0.008 |
| Cc1cc(O[C@@H]2CCN(S(C)(=O)=O)C2)cc(C)c1-c1c(C#N)ccc2c1CC[C@H]2Oc1ccc([C@H]2C[C@@H]2C(=O)O)cc1 [Example 37] | 0.032 |
| O=C(O)[C@H]1C[C@@H]1c1ccc(O[C@@H]2CCc3c(-c4cncc5ccccc45)ccc(F)c32)cc1 [Example 46, (1S,2S)-2-(4-((1R)-7-fluoro-4-(isoquinolin-4-yl)-2,3-dihydro-1H-inden-1-yloxy)phenyl)cyclo-propanecarboxylic acid] | 0.006 |
| Cc1cc(O[C@@H]2CCOC2)cc(C)c1-c1ccc(F)c2c1CC[C@H]2Oc1ccc([C@H]2C[C@@H]2C(=O)O)cc1 [Example 25] | 0.013 |
